US20250236629A1, “MEDIUM- OR MACRO-CYCLIC BENZYL-SUBSTITUTED HETEROCYCLE DERIVATIVES AND RELATED USES” (CENTESSA PHARMACEUTICALS (UK) LIMITED, priority 2022, published 2025)
Read-outs that look alike come from different tables or passages of the source.

Legend:
[1] = DCM
[2] = DCM; remark: listed apart in the source
[3] = molecular target: T1, human orexin type 2 receptor (hOX2R) (Homo sapiens, UniProt O43614); test: Orexin type 2 receptor agonist activity, intracellular Ca2+ (FLIPR TETRA) in CHO cells; format: cell-based; details: CHO cells expressing hOX2R; Ca2+ fluorescence area; 100% = 10 nM human orexin A; read-out: hOx2 pEC50 (converted)
T1 construct: the Orexin receptor cDNA was inserted into pcDNA3.1(+) plasmid vector; expressed in transfected cells
T1 sequence (O43614 1-444): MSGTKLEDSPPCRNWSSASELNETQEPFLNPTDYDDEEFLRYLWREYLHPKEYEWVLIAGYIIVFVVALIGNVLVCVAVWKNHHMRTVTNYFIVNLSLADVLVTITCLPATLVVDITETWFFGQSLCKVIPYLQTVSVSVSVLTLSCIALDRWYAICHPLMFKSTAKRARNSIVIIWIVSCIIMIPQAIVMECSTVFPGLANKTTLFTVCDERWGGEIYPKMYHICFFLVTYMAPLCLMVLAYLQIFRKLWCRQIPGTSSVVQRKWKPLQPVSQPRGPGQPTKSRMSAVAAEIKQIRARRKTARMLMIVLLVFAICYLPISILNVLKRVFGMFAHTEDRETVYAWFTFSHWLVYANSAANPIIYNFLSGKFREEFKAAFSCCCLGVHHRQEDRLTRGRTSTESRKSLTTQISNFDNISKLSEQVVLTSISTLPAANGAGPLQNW
Procedure: Stable cell line generation. Obtainment of cells stably expressing either human orexin type 2 or human orexin type 1 receptor: to obtain a stable cell line the Orexin receptor cDNA was inserted into pcDNA3.1(+) plasmid vector and clones identified by G418 drug resistance selection. […] A single clone for OX2R—CHO and OX1R—CHO were grown in bulk and frozen to generate a cell bank for routine screening.
Measurement of orexin type 2 receptor agonist activity. Chinese hamster ovary (CHO) cells expressing human orexin type 2 receptor (hOX2R) or human orexin type 1 receptor (hOX1R) were seeded in each well of 384 well black clear bottom plates (BD Flacon) at 10,000 cells per well and cultured for 24 hr in an Ham's F12 (Gibco) medium containing 10% fetal calf serum (Sigma Aldrich) under the conditions of 37° C., 5% CO2. After removal of the medium, 50 μl of assay buffer 1 (0.1% bovine serum albumin (Sigma Aldrich), 20 mM HEPES (Molecular Dimensions), […] probenecid (Sigma Aldrich), 1× Calcium 5 dye (Molecular Devices) in Hank's balanced salt solution (Invitrogen)) was added, and the cells were incubated for 60 min under the conditions of 37° C., 5% CO2. A test compound was dissolved in dimethyl sulfoxide (Sigma Aldrich) to 10 mM, and then diluted with assay buffer 2 (20 mM HEPES, Hank's balanced salt solution, 0.1% bovine serum albumin). For the reaction, a test compound solution (10 μl) was added using Fluorescent Imaging Plate Reader TETRA (FLIPR TETRA: manufactured by Molecular Devices), a fluorescence value (excitation wavelength 488 nm, measurement wavelength 570 nm) of each well was measured every one second for 2 min, and the agonist activity was determined using the area of the fluorescence value as an indicator of intracellular Ca^2+ concentration. The agonist activity of the test compound was calculated assuming that the fluorescence value of the well added with only the dilution buffer was 0% and the fluorescence value of the well added with 10 nM human orexin A (Tocris) buffer was 100%.
Values of hOx2 pEC50 in Table B are presented in ranges, in which 6.0≤“+”<7.0, 7.0≤“++”<8.0, 8.0≤“+++”<9.0, and 9.0≤“++++”<10.4.

[4] = tested on: wild type (WT) colony mates; test: Wake-promoting efficacy of oral small molecules, piezoelectric sleep/wake monitoring, WT mice; format: in vivo, mouse; details: dosed 5 h after light onset
Procedure: (§1) Wake-promoting efficacy of oral small molecules. Wake-promoting efficacy was evaluated in the […]) mouse model of NT1 and wild type (WT) colony mates. Mice were monitored in home cages using piezoelectric sensors for rapid, non-invasive classification of sleep and wakefulness by unsupervised machine learning on physiologically relevant readouts, such as body movement and breath rate. Piezoelectric detection is highly correlated with conventional time-intensive electroencephalogram/electromyography measures of sleep/wake states in both WT and NT1 mice. In a counterbalanced, repeated-measures design, mice were orally dosed at 5 h after light onset with test articles and vehicle.

[5] = tested on: B6.Cg-Tg(HCRT-MJD)1Stak/J (Atax) mouse model of NT1; test: Wake-promoting efficacy of oral small molecules, piezoelectric sleep/wake monitoring, Atax mice; format: in vivo; details: dosed 5 h after light onset
Procedure: as §1

OX2R = molecular target: T2, OX2R (Mus musculus, UniProt P58308); details: cited from earlier work
T2 construct: host or cells: mice (WT, orexin-deficient and NT1 models), endogenous receptor in brain
T2 sequence (P58308 1-460): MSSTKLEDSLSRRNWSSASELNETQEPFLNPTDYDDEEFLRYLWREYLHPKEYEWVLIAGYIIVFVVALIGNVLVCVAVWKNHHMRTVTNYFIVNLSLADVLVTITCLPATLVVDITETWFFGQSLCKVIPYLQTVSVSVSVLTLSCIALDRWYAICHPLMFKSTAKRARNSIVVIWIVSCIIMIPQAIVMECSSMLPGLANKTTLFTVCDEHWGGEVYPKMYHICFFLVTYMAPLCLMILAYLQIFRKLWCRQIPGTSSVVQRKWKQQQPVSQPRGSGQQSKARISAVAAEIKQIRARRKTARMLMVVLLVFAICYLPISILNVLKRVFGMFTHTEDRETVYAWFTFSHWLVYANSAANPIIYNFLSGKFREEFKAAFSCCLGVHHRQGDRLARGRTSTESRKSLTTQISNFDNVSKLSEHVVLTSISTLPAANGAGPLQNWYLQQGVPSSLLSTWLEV

Row | Compound | EC50 [3] | Wake % time 1 h post dose (increase from vehicle) ([4]; oral dose 10 mg/kg) | Wake % time 1 h post dose (increase from vehicle) ([5]; oral dose 1 mg/kg) | Wake % time 1 h post dose (increase from vehicle) ([5]; oral dose 3 mg/kg) | other results
1 | CNCCOc1ccccc1-c1cccc(C[C@@H]2NCC3(CC3)[C@@H]2NS(=O)(=O)C(F)F)c1F | – | – | – | – | ring closure, yield after HPLC ([1]; the molecule shown is the open-chain precursor, other bond, 13-membered ring, triphosgene/TEA, then K2CO3, then MeCN, 0.2 mM, 60.0 °C): 16%
2 | O=C1CCCN2C(=O)CCOc3ccccc3-c3cccc(c3)CC12 (stereo not shown) | – | – | – | – | ring closure, isolated yield ([2]; from O=C(O)CCOc1ccccc1-c1cccc(CC2NCCCC2=O)c1, amide bond, 12-membered ring, DMC (2-chloro-1,3-dimethylimidazolinium chloride)/DIEA, 2.56 mM, 25.0 °C, 12.0 h): 52%
3 | O=C1CCCN2C(=O)CCOc3ccccc3-c3cccc(c3F)CC12 (stereo not shown) | – | – | – | – | ring closure, isolated yield ([2]; from O=C(O)CCOc1ccccc1-c1cccc(CC2NCCCC2=O)c1F, amide bond, 12-membered ring, DMC (2-chloro-1,3-dimethylimidazolinium chloride)/DIEA, 2.7 mM, 25.0 °C, 12.0 h): 53%
4 | 1,1-difluoro-N-((4^2S,4^3R)-1^3,4^4,4^4-trifluoro-6-methyl-5-oxo-9-oxa-6-aza-4 (2,1)-pyrrolidina-1 (1,2),2 (1,3)-dibenzenacyclononaphane-4^3-yl) methanesulfonamide_cis racemic | – | – | – | – | ring closure, isolated yield ([2]; other bond, 13-membered ring, triphosgene/TEA, then K2CO3, then MeCN, 0.4 mM, 20.0 °C): 28.5%
5 | O=C1CCOc2c(F)cc(F)cc2-c2cccc(c2F)C[C@H]2[C@@H](NS(=O)(=O)CF)[C@@H](F)CCN12 [Example 41, 1-fluoro-N-((4^2S,4^3R,4^4S)-1^3,1^5,2^2,4^4-tetrafluoro-5-oxo-8-oxa-4 (2,1)-piperidina-1 (1,2),2 (1,3)-dibenzenacyclooctaphane-4^3-yl)methanesulfonamide] | 0.0398 to 1 nM | 28.0% | 32.4% | 38.2% | Wake % time 1 h post dose (increase from vehicle) ([4]; oral dose 30 mg/kg): 31.5%
6 | O=C1CCOc2c(F)cccc2-c2cccc(c2F)C[C@H]2[C@@H](NS(=O)(=O)CF)[C@@H](F)CCN12 [Example 42, 1-fluoro-N-((4^2S,4^3R,4^4S)-1^3,2^2,4^4-trifluoro-5-oxo-8-oxa-4 (2,1)-piperidina-1 (1,2),2 (1,3)-dibenzenacyclooctaphane-4^3-yl)methanesulfonamide] | 0.0398 to 1 nM | 22.8% | 33.7% | 34.2% | Wake % time 1 h post dose (increase from vehicle) ([4]; oral dose 3 mg/kg): 17.1%; Wake % time 1 h post dose (increase from vehicle) ([4]; oral dose 30 mg/kg): 37.7%
7 | O=C1CCOc2c(F)cc(F)cc2-c2cccc(c2F)C[C@H]2[C@@H](NS(=O)(=O)C3(F)CC3)[C@@H](F)CCN12 [Example 43, 1-fluoro-N-((4^2S,4^3R,4^4S)-1^3,1^5,2^2,4^4-tetrafluoro-5-oxo-8-oxa-4 (2,1)-piperidina-1 (1,2),2 (1,3)-dibenzenacyclooctaphane-4^3-yl)cyclopropane-1-sulfonamide] | 0.0398 to 1 nM | – | – | – | ring closure, yield after HPLC ([1]; from O=C(O)CCOc1c(F)cc(F)cc1-c1cccc(C[C@@H]2NCC[C@H](F)[C@@H]2NS(=O)(=O)C2(F)CC2)c1F, amide bond, 12-membered ring, DMC (2-chloro-1,3-dimethylimidazolinium chloride)/DIEA, 0.148 mM, 20.0 °C, 4.0 h): 77%
8 | O=C1CCOc2c(F)cccc2-c2cccc(c2F)C[C@H]2[C@@H](NS(=O)(=O)C3(F)CC3)[C@@H](F)CCN12 [Example 44, 1-fluoro-N-((4^2S,4^3R,4^4S)-1^3,2^2,4^4-trifluoro-5-oxo-8-oxa-4 (2,1)-piperidina-1 (1,2),2 (1,3)-dibenzenacyclooctaphane-4^3-yl)cyclopropane-1-sulfonamide] | 0.0398 to 1 nM | – | – | – | ring closure, yield after HPLC ([1]; from O=C(O)CCOc1c(F)cccc1-c1cccc(C[C@@H]2NCC[C@H](F)[C@@H]2NS(=O)(=O)C2(F)CC2)c1F, amide bond, 12-membered ring, DMC (2-chloro-1,3-dimethylimidazolinium chloride)/DIEA, 0.165 mM, 25.0 °C, 4.0 h): 42%
9 | O=C1CCOc2c(F)cc(F)cc2-c2cccc(c2F)C[C@H]2[C@@H](NS(=O)(=O)C3(F)CC3)CCCN12 [Example 47, 1-fluoro-N-((4^2S,4^3S)-1^3,1^5,2^2-trifluoro-5-oxo-8-oxa-4 (2,1)-piperidina-1 (1,2),2 (1,3)-dibenzenacyclooctaphane-4^3-yl)cyclopropane-1-sulfonamide] | 0.0398 to 1 nM | 39.0% | 41.8% | 40.4% | Wake % time 1 h post dose (increase from vehicle) ([4]; oral dose 1 mg/kg): 20.7%; Wake % time 1 h post dose (increase from vehicle) ([4]; oral dose 3 mg/kg): 37.6%; ring closure, isolated yield ([2]; from O=C(O)CCOc1c(F)cc(F)cc1-c1cccc(C[C@@H]2NCCC[C@@H]2NS(=O)(=O)C2(F)CC2)c1F, amide bond, 12-membered ring, DMC (2-chloro-1,3-dimethylimidazolinium chloride)/DIEA, 1.56 mM, 25.0 °C, 1.0 h): 44%; Wake % time 1 h post dose (increase from vehicle) ([5]; oral dose 0.3 mg/kg): 41.3%
10 | O=C1CCOc2c(F)cccc2-c2cccc(c2F)C[C@H]2[C@@H](NS(=O)(=O)C3(F)CC3)CCCN12 [Example 48, N-((4^2S,4^3S)-13,22-difluoro-5-oxo-8-oxa-4 (2,1)-piperidina-1 (1,2),2 (1,3)-dibenzenacyclooctaphane-4^3-yl)-1-fluorocyclopropane-1-sulfonamide] | 0.0398 to 1 nM | 34.8% | 40.5% | 48.0% | Wake % time 1 h post dose (increase from vehicle) ([4]; oral dose 3 mg/kg): 18.6%; Wake % time 1 h post dose (increase from vehicle) ([5]; oral dose 0.3 mg/kg): 44.4%
11 | O=C1CCOc2c(F)cccc2-c2cccc(c2)C[C@H]2[C@@H](NS(=O)(=O)C3(F)CC3)CCCN12 [Example 49, 1-fluoro-N-((4^2S,4^3S)-1^3-fluoro-5-oxo-8-oxa-4 (2,1)-piperidina-1 (1,2),2 (1,3)-dibenzenacyclooctaphane-4^3-yl)cyclopropane-1-sulfonamide] | 0.0398 to 1 nM | – | – | – | ring closure, yield after HPLC ([1]; from O=C(O)CCOc1c(F)cccc1-c1cccc(C[C@@H]2NCCC[C@@H]2NS(=O)(=O)C2(F)CC2)c1, amide bond, 12-membered ring, DMC (2-chloro-1,3-dimethylimidazolinium chloride)/DIEA, 1.84 mM, 20.0 °C, 4.0 h): 71%
12 | COc1ccc(-c2cccc(C(=O)N(C)C)c2)cc1S(=O)(=O)Nc1cccc(NCCNC(=O)c2ccccc2N(C)C)c1 [YNT-185] | – | – | – | – | sleep-onset REM periods and cataplexy-like events (OX2R; NT1 mouse model): decrease sleep-onset REM periods and cataplexy-like events; wakefulness (OX2R; intraperitoneally or ICV, wild type (WT) and orexin ligand-deficient mice): modestly increases wakefulness
